Key:
MCF7 cells = experiment: Northern blot of MCF7 cells in the presence and absence of β-estradiol; type: cell-based, human; settings: 1×10^-8 M β-estradiol for three days
Protocol: All cell lines were obtained from American Type Culture Collection (ATCC, Rockville, Md.) and were maintained as described previously. MCF7 cells that were induced with estradiol were grown under normal conditions until approximately 25% confluence. The media was subsequently changed to phenol-red free Minimal Essential Media (Gibco BRL, Gaithersburg, Md.) supplemented with 10% charcoal-stripped fetal calf serum, 10 U/ml penicillin G, 10 μg/ml streptomycin, 6 ng/ml bovine insulin for six days. MCF7 cells were induced with 1×10^-8 M water soluble β-estradiol (Sigma Chemical Company, St. Louis, Mo.) for three days.
Poly(A+)mRNA was isolated from breast carcinoma cell lines and analyzed by Northern blot as described previously (Carmeci et al. (1997) Genomics 45, 607-617). The GATA-3 cDNA probe was prepared by reverse transcribing 1.6 μg of MCF7 poly(A)+RNA using the GeneAmp® RNA PCR Kit (Perkin Elmer, Foster City, Calif.) as per the manufacturer's recommendations. Resultant cDNA was used as template to PCR amplify (GeneAmp® PCR Kit, Perkin Elmer) the region of the GATA-3 cDNA from +530 to +1712 (numbered in accordance with the GATA-3 cDNA sequence, Genbank accession number X55122) using primers GATA3-2 (SEQ ID NO:3) [5-[…]-3'] and GATA3-4 (SEQ ID NO:4) [5'-[…]-3']. […]

free GATA-3 = experiment: Gel retardation assay, free GATA-3 binding to GATA DNA probe; set-up: species or system human; settings: 1 μM, gel shift
Text: Acids Res 11, 1475-1489. […] (Santa Cruz Biotechnology) was also used as a competitor.

GATA-3 (TnT-GATA3) = GATA-3 (TnT-GATA3) (Homo sapiens, UniProt P23771 P23771:1-443); experiment: competition; mutant cold competitor at 100-fold molar excess; text states only appropriate sequence specificity by gel shift competition; settings: tags: none stated
Sequence of GATA-3 (TnT-GATA3) (P23771 whole entry, one chain of several): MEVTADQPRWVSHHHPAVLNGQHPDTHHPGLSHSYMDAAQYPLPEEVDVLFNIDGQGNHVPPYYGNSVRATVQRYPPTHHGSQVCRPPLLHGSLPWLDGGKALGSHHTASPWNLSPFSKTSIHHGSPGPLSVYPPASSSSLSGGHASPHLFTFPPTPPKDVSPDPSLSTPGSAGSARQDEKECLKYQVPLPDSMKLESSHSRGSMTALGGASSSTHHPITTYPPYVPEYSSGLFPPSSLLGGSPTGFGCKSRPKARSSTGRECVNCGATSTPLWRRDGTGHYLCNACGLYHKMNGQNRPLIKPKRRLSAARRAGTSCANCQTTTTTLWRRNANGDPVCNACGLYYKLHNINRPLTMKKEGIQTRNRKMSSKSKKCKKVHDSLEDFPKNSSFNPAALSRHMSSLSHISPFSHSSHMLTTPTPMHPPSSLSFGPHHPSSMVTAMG
Protocol: Acids Res* 11, 1475–1489. […] (Santa Cruz Biotechnology) was also used as a competitor.
It was important to determine if functional GATA-3 protein is expressed in these cells. The GATA-3 cDNA was cloned from the MCF7 cells and GATA-3 protein was expressed using in vitro transcription/translation. […] MCF7 nuclear extracts were also tested for GATA binding activity.

Molecule: C[C@]12CC[C@@H]3c4ccc(O)cc4CC[C@H]3[C@@H]1CC[C@@H]2O [estradiol, β-estradiol]
- expression of GATA-3 mRNA (MCF7 cells): did not change
- pS2 expression (mRNA) (MCF7 cells): induced

Molecule: CC/C(=C(\c1ccccc1)c1ccc(OCCN(C)C)cc1)c1ccccc1 [tamoxifen]
- interference with free GATA-3 binding DNA (free GATA-3): does not interfere with free GATA-3 binding DNA

B1: mutant GATA oligonucleotide (dsDNA)
DNA 1: CACTTCTTAACAGAAAGTCTTAACTCT
DNA 2: AGAGTTAAGACTTTCTGTTAAGAAGTG
modifications: [NONE]
- binding result (GATA-3 (TnT-GATA3)): no binding
